ChEMBL document CHEMBL6182856, “Novel one-/two-photon excited carbazole/quinolinium photosensitizers manifest nanomolar and hypoxia-resistant tumor photodynamic therapy by accelerating apoptosis, ferroptosis, and autophagy” (Eur J Med Chem, 2025)
Active and inactive are the calls of the source. The calls are words filed in the database; no cut-off is given here.

Legend:
[1] = Cytotoxicity against human HFL1 cells assessed as inhibition of cell growth incubated for 24 hrs by MTT assay; type: toxicity, cell-based
4T1 [2] = test: Cytotoxicity against mouse 4T1 cells assessed as inhibition of cell growth incubated for 24 hrs measured under normoxia conditions by MTT assay; type: functional, cell-based; conditions: 4T1, 24 h
[3] = Drug uptake in human A549 cells assessed as localization in lysosomes by measuring appearance of yellow fluorescence by Hoechst33342/LysoTracker dye based confocal laser scanning microscopic analysis; type: ADME, cell-based
A549 [4] = test: Induction of autophagy in human A549 cells assessed as increase in Beclin-I expression measured upon light irradiation by western blot analysis relative to control; type: functional
[5] = Selectivity index, ratio of IC50 for cytotoxicity against human HFL1 cells measured under normoxia conditions to IC50 for cytotoxicity against human A549 cells measured under normoxia conditions; type: toxicity, cell-based; conditions: HFL1 cells versus A549 cells, read-out: Ratio IC50
A549 [6] = test: Induction of apoptosis in human A549 cells assessed as early apoptotic cells measured upon light irradiation by AnnexinV-FITC/PI staining based flow cytometric analysis (reference value: 0.39%); type: functional
A549 [7] = test: In vivo photodynamic therapy based antitumor activity against human A549 cells xenografted in mouse assessed as tumor growth inhibition administered intratumorally on day 0 and 7 and measured on day 15; type: functional; conditions: route it(Intratumoral); time 15 day
[8] = Drug uptake in human A549 cells assessed as localization in mitochondria by measuring appearance of yellow fluorescence by Hoechst33342/MitoTracker dye based confocal laser scanning microscopic analysis; type: ADME
[9] = Phototoxicity against human A549 cells assessed as inhibition of cell growth incubated for 24 hrs measured under normoxia conditions and after one-photon excitation upon irradiation with light at 520 nm, 200 mW/cm2 for 10 mins by MTT assay; type: functional, cell-based; conditions: A549, light or radiation study
[10] = Toxicity against mouse xenografted with human A549 cells assessed as changes in hematological indicators administered intratumorally followed by exposure to light on day 0 and 7 and measured on day 15; conditions: in vivo, other, 360 h, route it(Intratumoral), time 15 day
A549 [11] = test: Induction of apoptosis in human A549 cells assessed as necrotic cells measured upon light irradiation by AnnexinV-FITC/PI staining based flow cytometric analysis (reference value: 1.04%); type: functional
[12] = Photosensitizing ability of the compound assessed as superoxide radical production measured upon irradiation by DHE probe based assay; type: functional
A549 [13] = test: Induction of apoptosis in human A549 cells assessed as viable cells measured upon light irradiation by AnnexinV-FITC/PI staining based flow cytometric analysis (reference value: 98.4%); type: functional
A549 [14] = test: (§1) Photosensitizing ability of the compound in human A549 cells assessed as increase in intracellular ROS generation by measuring increase in fluorescence intensity measured upon light irradiation under normoxia conditions by DCFH-DA staining based fluorescence analysis relative to FLI in cells without irradiation; type: functional
[15] = Phototoxicity against human A549 cells assessed as inhibition of cell growth incubated for 24 hrs measured under hypoxia conditions and after one-photon excitation upon irradiation with light at 520 nm, 200 mW/cm2 for 10 mins by MTT assay; type: functional, cell-based; conditions: A549, light or radiation study
A549 [16] = test: Induction of apoptosis in human A549 cells assessed as increase in Bax expression measured upon light irradiation by western blot analysis relative to control; type: functional
[17] = Phototoxicity against mouse 4T1 cells assessed as inhibition of cell growth incubated for 24 hrs measured under normoxia conditions and after one-photon excitation upon irradiation with light at 520 nm, 200 mW/cm2 for 10 mins by MTT assay; type: functional, cell-based; conditions: 4T1, light or radiation study
A549 [18] = test: Cytotoxicity against human A549 cells assessed as inhibition of cell growth incubated for 24 hrs measured under normoxia conditions by MTT assay; type: functional, cell-based; conditions: A549, 24 h
[19] = Photosensitizing ability of the compound in methanol assessed as time duration of singlet oxygen production measured upon irradiation by DPBF based assay; type: functional
[20] = Phototherapeutic index, ratio of IC50 for cytotoxicity against human HT-29 cells measured under normoxia conditions to IC50 for phototoxicity against human HT-29 cells measured under normoxia conditions and after one-photon excitation upon irradiation with light at 520 nm, 200 mW/cm2 for 10 mins; type: functional
A549 [21] = test: Induction of mitochondrial damage in human A549 cells assessed as increase in green fluorescence intensity measured upon light irradiation by JC-1 staining based fluorescence analysis; type: functional, cell-based
A549 [22] = test: Induction of ferroptosis in human A549 cells assessed as increase in lipid peroxidation by measuring increase in green fluorescence of the oxidized state measured upon irradiation by BODIPY 581/591C11 probe based confocal imaging analysis; type: functional, cell-based
[23] = Photosensitizing ability of the compound assessed as hydroxyl radical production upon irradiation by HPF probe based assay relative to control; type: functional
[24] = Photosensitizing ability of the compound assessed as hydroxyl radical production upon irradiation by HPF probe based assay relative to RuB; type: functional
A549 [25] = test: Induction of apoptosis in human A549 cells assessed as reduction in Bcl-2 expression measured upon light irradiation by western blot analysis relative to control; type: functional
A549 [26] = test: Induction of ferroptosis in human A549 cells assessed as increase in lipid peroxidation by measuring reduction in red fluorescence of the reduced state measured upon irradiation by BODIPY 581/591C11 probe based confocal imaging analysis; type: functional, cell-based
[27] = Toxicity against mouse xenografted with human A549 cells assessed as changes in body weight administered intratumorally followed by exposure to light on day 0 and 7 and measured for 15 days; conditions: in vivo, other, 360 h, route it(Intratumoral), time 15 day
[28] = Photosensitizing ability of the compound assessed as hydroxyl radical production upon irradiation by HPF probe based assay relative to KNKQ; type: functional
[29] = Photosensitizing ability of the compound assessed as hydroxyl radical production measured upon irradiation by HPF probe based assay; type: functional
A549 [30] = test: Induction of apoptosis in human A549 cells assessed as early apoptotic cells measured under dark conditions by AnnexinV-FITC/PI staining based flow cytometric analysis (reference value: 0.12%); type: functional
A549 [31] = test: Induction of apoptosis in human A549 cells assessed as increase in cleaved caspase-3 expression measured upon light irradiation by western blot analysis relative to control; type: functional
A549 [32] = test: Induction of DNA damage in human A549 cells assessed as increase in gammaH2AX expression measured upon light irradiation by western blot analysis relative to control; type: functional
A549 [33] = test: as §1, with “superoxide” for “ROS”, “DHE probe” for “DCFH-DA staining”; type: functional
4T1 [34] = test: Phototherapeutic index, ratio of IC50 for cytotoxicity against mouse 4T1 cells measured under normoxia conditions to IC50 for phototoxicity against mouse 4T1 cells measured under normoxia conditions and after one-photon excitation upon irradiation with light at 520 nm, 200 mW/cm2 for 10 mins; type: functional
A549 [35] = test: Induction of ferroptosis in human A549 cells assessed as increase in lipid peroxidation by measuring increase in green-to-red fluorescence ratio measured upon irradiation by BODIPY 581/591C11 probe based confocal imaging analysis relative to control; type: functional
[36] = Photosensitizing ability of the compound assessed as singlet oxygen production measured upon irradiation by electron spin resonance analysis; type: functional
[37] = Toxicity against mouse xenografted with human A549 cells assessed as changes in body weight administered intratumorally on day 0 and 7 and measured for 15 days; conditions: in vivo, other, 360 h, route it(Intratumoral), time 15 day

With `CCn1c2ccc(/C=C/c3cc[n+](C)c4ccccc34)cc2c2cc(N(c3ccccc3)c3ccccc3)ccc21.[I-]` the IC50 at 24 h [1] was 8910 nM, the IC50 (4T1 [2]) was 1080 nM and the Drug uptake [3] was “Active”. For the same molecule, the “fold change (FC)” value (A549 [4]) was 2, the selectivity ratio [5] was 6 and the Activity (A549 [6]) was 2.36%. For the same molecule, the TGI (A549 [7]) was 70.6%, the Drug uptake [8] was “Active” and the IC50 [9] was 27 nM. The Activity [10] was “Non-toxic”, the Activity (A549 [11]) was 2.56% and the Activity [12] was “Active”. The Activity (A549 [13]) was 7.29%, the “fold change (FC)” value (A549 [14]) was 4 and the IC50 [15] was 43 nM. For the same molecule, the “fold change (FC)” value (A549 [16]) was 5, the IC50 [17] was 51 nM and the IC50 (A549 [18]) was 1470 nM. For the same molecule, the TIME [19] was under 0.133 h, the “Ratio IC50” value [20] was 51 and the Activity (A549 [21]) was “Active”. For the same molecule, the Activity (A549 [22]) was “Active”, the fold change (FC) [23] was 60 and the fold change (FC) [24] was 3. For the same molecule, the “fold change (FC)” value (A549 [25]) was about 3, the Activity (A549 [26]) was “Active” and the Activity [27] was “Non-toxic”. The fold change (FC) [28] was 3, the Activity [29] was “Active” and the Activity (A549 [30]) was 18.1%. The “fold change (FC)” value (A549 [31]) was 3, the “fold change (FC)” value (A549 [32]) was 4 and the “fold change (FC)” value (A549 [33]) was 4. The “Ratio IC50” value (4T1 [34]) was 21, the “fold change (FC)” value (A549 [35]) was 24 and the Activity [36] was “Active”. For the same molecule, the Activity [37] was “Non-toxic”.
